Test results reported in ChEMBL document CHEMBL3046924 (Biochemistry, 2004).
Activity calls are given as the source filed them. The rule behind the calls is not given here.

What was measured:
[1] = target: 4-hydroxyphenylpyruvate dioxygenase (Rattus norvegicus, UniProt P32755); experiment: Inhibition of Rattus norvegicus (rat) 4-hydroxyphenylpyruvate dioxygenase assessed as formation of homogentisate by HGA dioxygenase coupling enzyme assay; conditions: read-out: I50
[2] = target: T1, 4-hydroxyphenylpyruvate dioxygenase (Arabidopsis thaliana, UniProt P93836); experiment: Inhibition of Arabidopsis thaliana 4-hydroxyphenylpyruvate dioxygenase assessed as formation of homogentisate by HGA dioxygenase coupling enzyme assay; conditions: read-out: I50
T1 sequence (P93836 whole entry): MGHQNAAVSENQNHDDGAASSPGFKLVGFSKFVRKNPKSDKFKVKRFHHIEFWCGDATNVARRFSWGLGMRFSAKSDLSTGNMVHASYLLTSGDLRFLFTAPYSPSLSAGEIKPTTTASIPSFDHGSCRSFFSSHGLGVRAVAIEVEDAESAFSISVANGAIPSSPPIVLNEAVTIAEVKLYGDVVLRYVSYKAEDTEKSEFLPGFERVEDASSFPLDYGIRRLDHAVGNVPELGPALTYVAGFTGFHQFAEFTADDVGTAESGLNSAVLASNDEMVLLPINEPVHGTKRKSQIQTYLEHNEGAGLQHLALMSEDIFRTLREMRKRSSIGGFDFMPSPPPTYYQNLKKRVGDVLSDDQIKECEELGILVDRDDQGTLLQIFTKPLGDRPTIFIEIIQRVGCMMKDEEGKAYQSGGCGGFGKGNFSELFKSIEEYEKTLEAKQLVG

[3] = target: 4-hydroxyphenylpyruvate dioxygenase (Rattus norvegicus) (UniProt P32755); experiment: Inhibition of Rattus norvegicus (rat) 4-hydroxyphenylpyruvate dioxygenase assessed as formation of homogentisate upto 20 uM by HGA dioxygenase coupling enzyme assay
Sequence of 4-hydroxyphenylpyruvate dioxygenase (Rattus norvegicus) (P32755 whole entry): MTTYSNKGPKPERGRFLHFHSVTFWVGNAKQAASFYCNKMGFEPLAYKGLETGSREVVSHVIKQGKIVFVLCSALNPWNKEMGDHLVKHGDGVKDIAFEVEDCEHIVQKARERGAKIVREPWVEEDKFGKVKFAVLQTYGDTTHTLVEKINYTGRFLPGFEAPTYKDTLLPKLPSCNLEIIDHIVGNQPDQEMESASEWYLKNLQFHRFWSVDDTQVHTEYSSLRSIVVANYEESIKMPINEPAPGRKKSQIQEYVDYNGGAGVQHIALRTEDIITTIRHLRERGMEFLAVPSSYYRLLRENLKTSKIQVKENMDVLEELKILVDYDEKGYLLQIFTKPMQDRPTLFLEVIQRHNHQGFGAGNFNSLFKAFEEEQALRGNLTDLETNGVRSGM

Sequence of 4-hydroxyphenylpyruvate dioxygenase (Rattus norvegicus, UniProt P32755) (P32755 whole entry): as above

SMILES	IC50 [1]	IC50 [2]	inhibition [3]
COc1ccc(-c2c(S(C)(=O)=O)ccc(C(=O)c3cnn(C(C)(C)C)c3O)c2C)cc1	< 20 nM	7 nM	–
CC(C)(C)n1nc(-c2ccc(Cl)cc2Cl)c(C(=O)c2ccc(S(C)(=O)=O)cc2Cl)c1O	–	–	inactive
